Reference: patent US20070128217A1 (priority 2003, published 2007)

Key:
[1] = tested on: rabbit serum obtained by immunizing a rabbit with the SARS-CoV strain Frankfurt 1; type: binding; parameters: Binding of a rabbit serum to linear peptides / Binding of a rabbit serum to looped peptides / Rabbit serum linear peptides / Rabbit serum looped peptides / Binding of a rabbit serum to linear peptides of protein N of SARS-CoV Urbani (Rabbit serum linear peptides) / Binding of a rabbit serum to looped/cyclic peptides of protein N of SARS-CoV Urbani (Rabbit serum looped peptides): unit not given here
[2] = tested on: control sera (pooled serum of ten healthy LUMC hospital workers; commercial negative donor pooled serum from the Dutch bloodbank); type: binding, human; parameters: Binding of Control serum LUMC to linear peptides / Binding of Control serum Blood-bank to linear peptides / Binding of Control serum LUMC to looped peptides / Binding of Control Serum Blood-Bank to Looped peptides / Binding of Control serum LUMC to linear peptides of the protein M of SARS-CoV Urbani / Binding of Control serum Blood-bank to linear peptides of the protein M of SARS-CoV Urbani / Binding of Control serum LUMC to looped peptides of the protein M of SARS-CoV Urbani / Binding of Control Serum Blood-Bank to Looped peptides of the protein M of SARS-CoV Urbani: unit not given here
[3] = tested on: antibodies in sera from SARS patients (sera 1a, 1b, 2, 6, 37, 62, London, SARS-yellow, SARS-green); type: binding, human; parameters: Binding of serum 6 to linear peptides of protein X1 of SARS-CoV Urbani / Binding of serum 37 to linear peptides of protein X1 of SARS-CoV Urbani / Binding of serum 6 to looped/cyclic peptide (PEPSCAN-ELISA) / Binding of serum 37 to looped/cyclic peptide (PEPSCAN-ELISA) / Binding of serum 37 to looped/cyclic peptides of protein X1 of SARS-CoV Urbani / Binding of serum 6 to linear peptides of protein X2 / Binding of serum 37 to linear peptides of protein X2 / Binding of serum 37 to looped/cyclic peptides of protein X2 of SARS-CoV Urbani / Binding of serum 6 to linear peptides of protein M of SARS-CoV Urbani / Binding of serum 37 to linear peptides of protein M of SARS-CoV Urbani / Binding of serum 6 to looped/cyclic peptides of protein M of SARS-CoV Urbani / Binding of serum 37 to looped/cyclic peptides of protein M of SARS-CoV Urbani / Binding of serum 6 to linear peptides of protein X3 of SARS-CoV Urbani / Binding of serum 37 to linear peptides of protein X3 of SARS-CoV Urbani / Binding of serum 37 to looped/cyclic peptides of protein X3 of SARS-CoV Urbani / Binding of serum 6 to linear peptides of protein X4 of SARS-CoV Urbani / Binding of serum 37 to linear peptides of protein X4 of SARS-CoV Urbani / Binding of serum 37 to looped/cyclic peptides of protein X4 of SARS-CoV Urbani / Binding of serum 6 to linear peptides of protein X5 of SARS-CoV Urbani / Binding of serum 37 to linear peptides of protein X5 of SARS-CoV Urbani / Binding of serum 37 to looped/cyclic peptides of protein X5 of SARS-CoV Urbani / Binding of serum 6 to linear peptides of protein N of SARS-CoV Urbani / Binding of serum 37 to linear peptides of protein N of SARS-CoV Urbani / Binding of serum 6 to linear peptide (PEPSCAN-ELISA) / Binding of serum 1a to looped/cyclic peptides of protein N of SARS-CoV Urbani / Binding of serum 1b to looped/cyclic peptides of protein N of SARS-CoV Urbani / Binding of serum 2 to looped/cyclic peptides of protein N of SARS-CoV Urbani / Binding of serum 6 to looped/cyclic peptides of protein N of SARS-CoV Urbani / Binding of serum 37 to looped/cyclic peptides of protein N of SARS-CoV Urbani / Binding of serum 62 to looped/cyclic peptides of protein N of SARS-CoV Urbani / Binding of serum London to looped/cyclic peptides of protein N of SARS-CoV Urbani / Binding of serum SARS-green to looped/cyclic peptides of protein N of SARS-CoV Urbani: unit not given here

LQTLVLKMLHSSSLT
Binding of a rabbit serum to linear peptides [1]: 0.3 | Binding of a rabbit serum to looped peptides [1]: 0.3 | Binding of Control Serum Blood-Bank to Looped peptides [2]: 0.5 | Binding of Control serum Blood-bank to linear peptides [2]: 0.7 | Binding of Control serum LUMC to linear peptides [2]: 0.5 | Binding of Control serum LUMC to looped peptides [2]: 0.5 | Binding of serum 1a to linear peptides of protein X2 [3]: 0.7 | Binding of serum 1a to looped/cyclic peptides of protein X2 of SARS-CoV Urbani [3]: 0.4 | Binding of serum 1b to linear peptides of protein X2 [3]: 0.5 | Binding of serum 1b to looped/cyclic peptides of protein X2 of SARS-CoV Urbani [3]: 0.4 | Binding of serum 2 to linear peptides of protein X2 [3]: 0.5 | Binding of serum 2 to looped/cyclic peptides of protein X2 of SARS-CoV Urbani [3]: 0.3 | Binding of serum 6 to linear peptides of protein X2 [3]: 0.4 | Binding of serum 6 to looped/cyclic peptides of protein X2 of SARS-CoV Urbani [3]: 0.5 | Binding of serum 37 to linear peptides of protein X2 [3]: 0.6 | Binding of serum 37 to looped/cyclic peptides of protein X2 of SARS-CoV Urbani [3]: 0.3 | Binding of serum 62 to linear peptides of protein X2 [3]: 0.6 | Binding of serum 62 to looped/cyclic peptides of protein X2 of SARS-CoV Urbani [3]: 0.4 | Binding of serum London to linear peptides of protein X2 [3]: 0.4 | Binding of serum London to looped/cyclic peptides of protein X2 of SARS-CoV Urbani [3]: 0.5 | Binding of serum SARS-green to linear peptides of protein X2 [3]: 0.5 | Binding of serum SARS-green to looped/cyclic peptides of protein X2 of SARS-CoV Urbani [3]: 0.3 | Binding of serum SARS-yellow to linear peptides of protein X2 [3]: 0.7 | Binding of serum SARS-yellow to looped/cyclic peptides of protein X2 of SARS-CoV Urbani [3]: 0.3

LSLLKVTAFQHQNSK
Binding of a rabbit serum to linear peptides [1]: 0.4 | Binding of a rabbit serum to looped peptides [1]: 0.3 | Binding of Control Serum Blood-Bank to Looped peptides [2]: 0.4 | Binding of Control serum Blood-bank to linear peptides [2]: 0.1 | Binding of Control serum LUMC to linear peptides [2]: 0.4 | Binding of Control serum LUMC to looped peptides [2]: 0.3 | Binding of serum 1a to linear peptides of protein X2 [3]: 0.4 | Binding of serum 1a to looped/cyclic peptides of protein X2 of SARS-CoV Urbani [3]: 0.3 | Binding of serum 1b to linear peptides of protein X2 [3]: 0.1 | Binding of serum 1b to looped/cyclic peptides of protein X2 of SARS-CoV Urbani [3]: 0.2 | Binding of serum 2 to linear peptides of protein X2 [3]: 0.1 | Binding of serum 2 to looped/cyclic peptides of protein X2 of SARS-CoV Urbani [3]: 0.1 | Binding of serum 6 to linear peptides of protein X2 [3]: 0.2 | Binding of serum 6 to looped/cyclic peptides of protein X2 of SARS-CoV Urbani [3]: 0.1 | Binding of serum 37 to linear peptides of protein X2 [3]: 0.4 | Binding of serum 37 to looped/cyclic peptides of protein X2 of SARS-CoV Urbani [3]: 0.2 | Binding of serum 62 to linear peptides of protein X2 [3]: 0.2 | Binding of serum 62 to looped/cyclic peptides of protein X2 of SARS-CoV Urbani [3]: 0.3 | Binding of serum London to linear peptides of protein X2 [3]: 0.2 | Binding of serum London to looped/cyclic peptides of protein X2 of SARS-CoV Urbani [3]: 0.1 | Binding of serum SARS-green to linear peptides of protein X2 [3]: 0.1 | Binding of serum SARS-green to looped/cyclic peptides of protein X2 of SARS-CoV Urbani [3]: 0.1 | Binding of serum SARS-yellow to linear peptides of protein X2 [3]: 0.0 | Binding of serum SARS-yellow to looped/cyclic peptides of protein X2 of SARS-CoV Urbani [3]: 0.2

LTSLLKTHRMCKYTQ
Binding of a rabbit serum to linear peptides [1]: 0.3 | Binding of a rabbit serum to looped peptides [1]: 0.4 | Binding of Control Serum Blood-Bank to Looped peptides [2]: 0.4 | Binding of Control serum Blood-bank to linear peptides [2]: 0.5 | Binding of Control serum LUMC to linear peptides [2]: 0.4 | Binding of Control serum LUMC to looped peptides [2]: 0.5 | Binding of serum 1a to linear peptides of protein X2 [3]: 0.7 | Binding of serum 1a to looped/cyclic peptides of protein X2 of SARS-CoV Urbani [3]: 0.4 | Binding of serum 1b to linear peptides of protein X2 [3]: 0.3 | Binding of serum 1b to looped/cyclic peptides of protein X2 of SARS-CoV Urbani [3]: 0.3 | Binding of serum 2 to linear peptides of protein X2 [3]: 0.5 | Binding of serum 2 to looped/cyclic peptides of protein X2 of SARS-CoV Urbani [3]: 0.2 | Binding of serum 6 to linear peptides of protein X2 [3]: 0.5 | Binding of serum 6 to looped/cyclic peptides of protein X2 of SARS-CoV Urbani [3]: 0.2 | Binding of serum 37 to linear peptides of protein X2 [3]: 0.6 | Binding of serum 37 to looped/cyclic peptides of protein X2 of SARS-CoV Urbani [3]: 0.3 | Binding of serum 62 to linear peptides of protein X2 [3]: 0.6 | Binding of serum 62 to looped/cyclic peptides of protein X2 of SARS-CoV Urbani [3]: 0.4 | Binding of serum London to linear peptides of protein X2 [3]: 0.5 | Binding of serum London to looped/cyclic peptides of protein X2 of SARS-CoV Urbani [3]: 0.2 | Binding of serum SARS-green to linear peptides of protein X2 [3]: 0.2 | Binding of serum SARS-green to looped/cyclic peptides of protein X2 of SARS-CoV Urbani [3]: 0.2 | Binding of serum SARS-yellow to linear peptides of protein X2 [3]: 0.4 | Binding of serum SARS-yellow to looped/cyclic peptides of protein X2 of SARS-CoV Urbani [3]: 0.3

LVFLILCFTIKRKTE
Rabbit serum linear peptides [1]: 0.5 | Rabbit serum looped peptides [1]: 0.6 | Binding of Control Serum Blood-Bank to Looped peptides [2]: 0.8 | Binding of Control serum Blood-bank to linear peptides [2]: 0.8 | Binding of Control serum LUMC to linear peptides [2]: 0.6 | Binding of Control serum LUMC to looped peptides [2]: 0.6 | Binding of serum 1a to linear peptides of protein X4 of SARS-CoV Urbani [3]: 0.7 | Binding of serum 1a to looped/cyclic peptides of protein X4 of SARS-CoV Urbani [3]: 0.7 | Binding of serum 1b to linear peptides of protein X4 of SARS-CoV Urbani [3]: 0.6 | Binding of serum 1b to looped/cyclic peptides of protein X4 of SARS-CoV Urbani [3]: 0.4 | Binding of serum 2 to linear peptides of protein X4 of SARS-CoV Urbani [3]: 0.5 | Binding of serum 2 to looped/cyclic peptides of protein X4 of SARS-CoV Urbani [3]: 0.6 | Binding of serum 6 to linear peptides of protein X4 of SARS-CoV Urbani [3]: 0.7 | Binding of serum 6 to looped/cyclic peptides of protein X4 of SARS-CoV Urbani [3]: 0.7 | Binding of serum 37 to linear peptides of protein X4 of SARS-CoV Urbani [3]: 0.7 | Binding of serum 37 to looped/cyclic peptides of protein X4 of SARS-CoV Urbani [3]: 0.6 | Binding of serum 62 to linear peptides of protein X4 of SARS-CoV Urbani [3]: 0.8 | Binding of serum 62 to looped/cyclic peptides of protein X4 of SARS-CoV Urbani [3]: 0.7 | Binding of serum London to linear peptides of protein X4 of SARS-CoV Urbani [3]: 0.8 | Binding of serum London to looped/cyclic peptides of protein X4 of SARS-CoV Urbani [3]: 0.4 | Binding of serum SARS-green to linear peptides of protein X4 of SARS-CoV Urbani [3]: 0.7 | Binding of serum SARS-green to looped/cyclic peptides of protein X4 of SARS-CoV Urbani [3]: 0.2 | Binding of serum SARS-yellow to linear peptides of protein X4 of SARS-CoV Urbani [3]: 0.6 | Binding of serum SARS-yellow to looped/cyclic peptides of protein X4 of SARS-CoV Urbani [3]: 0.7
